Here are results for one compound from patent publication US20090130229A1, “Antitumor uses of compound” (Cell Therapeutics, Inc., priority 2002, published 2009).

Data set [1] concerns NIH3T3^KITΔ559 cells. Put plainly: Reversion of transformed morphologic phenotype of NIH3T3 transfectants expressing KIT (Δ559). In kind it is cell-based, mouse. The note with it: 20 μM, 24 h, phase-contrast microscope. The method, then:
FIG. 7. Effects of Cpd1 on cell lines expressing constitutively activated forms of Kit. […] Cells were treated with 20 μM Cpd1 and photographed 24 h later under a phase-contrast microscope (original magnification X 100). B): Inhibition of Kit (Δ559) autophosphorylation and expression in NIH3T3 transfectants. Cells were treated with Cpd 1 at the indicated concentrations, for 72 h. Cell lysates were immunoprecipitated with anti-Kit antibody and subjected to Western blotting with anti-p-Tyr or anti-Kit antibodies. C): Inhibition of expression and autocrine loop-activated autophosphorylation of c-Kit in the SCLC cell line N592. Cells were treated with Cpd 1 at the indicated concentrations, for 24 h. Whole cell lysates were subjected to Western blotting with anti-Kit antibody or with an antibody specifically recognizing the tyrosine phosphorylated/activated Kit (p-Kit).
The following human medullary thyroid carcinoma (MTC) cell lines were used in this study. The TT cell line derived from a MEN2A-associated MTC characterized by expression of the RET oncogene carrying the mutation C634W. The MZ-CRC-1 cell line derived from MEN2B-associated MTC characterized by expression of the RET oncogene carrying the mutation M918T. […]

In data set [2] the target is T1, FGF-R1 (Mus musculus, UniProt P16092).
T1 construct: endogenous in cells; host or cells: Swiss3T3 (mouse fibroblasts)
T1 sequence (P16092 22-822): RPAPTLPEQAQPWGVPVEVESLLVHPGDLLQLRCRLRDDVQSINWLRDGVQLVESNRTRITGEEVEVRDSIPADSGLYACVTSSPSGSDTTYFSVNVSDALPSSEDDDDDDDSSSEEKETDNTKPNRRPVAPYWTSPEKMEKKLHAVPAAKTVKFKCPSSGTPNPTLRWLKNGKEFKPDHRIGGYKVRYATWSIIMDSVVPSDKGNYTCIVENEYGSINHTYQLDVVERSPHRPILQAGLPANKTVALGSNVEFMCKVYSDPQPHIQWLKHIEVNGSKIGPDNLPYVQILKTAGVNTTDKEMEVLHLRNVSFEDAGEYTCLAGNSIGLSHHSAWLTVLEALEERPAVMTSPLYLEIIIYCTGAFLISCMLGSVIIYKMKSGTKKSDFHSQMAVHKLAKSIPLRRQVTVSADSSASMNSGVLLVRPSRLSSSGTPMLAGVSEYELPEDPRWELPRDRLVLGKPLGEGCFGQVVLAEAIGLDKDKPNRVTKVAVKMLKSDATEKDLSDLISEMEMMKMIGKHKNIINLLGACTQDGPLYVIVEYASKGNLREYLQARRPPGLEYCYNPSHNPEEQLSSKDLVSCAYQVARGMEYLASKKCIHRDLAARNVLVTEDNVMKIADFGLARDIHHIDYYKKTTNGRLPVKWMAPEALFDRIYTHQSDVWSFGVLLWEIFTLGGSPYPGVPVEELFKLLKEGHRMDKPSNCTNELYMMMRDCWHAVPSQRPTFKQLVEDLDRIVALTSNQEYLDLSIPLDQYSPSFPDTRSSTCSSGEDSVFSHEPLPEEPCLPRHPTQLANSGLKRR
Put plainly: FGF-R1 autophosphorylation and expression in Swiss3T3 cells. In kind it is cell-based. The note with it: 18 h. As to the method: FIG. 6. Inhibition of autophosphorylation and expression of FGF-R1 and FGF-R3 receptors in whole cells by Cpd1. A): Swiss3T3 cells were serum starved for 24 h and then treated with Cpd1 at the indicated concentrations, for 18 h. After stimulation with 100 ng/ml FGF for 5 min, whole cell lysates were prepared and subjected to Western blotting with anti-pTyr or anti-FGF-R1. Protein loading by anti-actin blot is shown. B): NIH3T3 transformed by the FGF-R3 mutant Y373C were treated with the indicated concentrations, for 72 h. Cell extracts were immunoprecipitated with anti-FGF-R3 and then subjected to Western blotting with anti p-Tyr or anti-FGF-R3.
The following human medullary thyroid carcinoma (MTC) cell lines were used in this study. The TT cell line derived from a MEN2A-associated MTC characterized by expression of the RET oncogene carrying the mutation C634W. […]
For whole-cell extract preparation, cells were lysed in sodium dodecyl sulfate (SDS) sample buffer (62.5 mM Tris-HCl (pH 6.8), 2% SDS) with 1 mM PMSF, 10 μg/ml pepstatin, 12.5 μg/ml leupeptin, 100 KIU aprotinin, 1 mM sodium orthovanadate, 1 mM sodium molybdate. Protein concentration was determined in appropriately diluted aliquots by the bicinchionic acid (BCA) method (Pierce, Rockford, Ill.), then samples were adjusted to a final concentration of 10% glycerol, 5% β-mercaptoethanol, 0.001% bromophenol blue. […]

In data set [3] the test system is TT medullary thyroid carcinoma xenografts. Put plainly: Antitumor activity in nude mice harboring TT xenografts. In kind it is in vivo. The note with it: for TWI (tumor weight inhibition): 10 consecutive days. The method, then:
FIG. 3. Antitumor activity of Cpd 1 in nude mice harboring TT medullary thyroid carcinoma xenografts. Drug treatment started 25 days after s.c. inoculum of the tumor cells. Cpd 1 was delivered per os at 50 or 100 mg/Kg, twice in a day (2qd), for 10 consecutive days (indicated by arrows). Control mice received the vehicle. […] TWI were 60% (P<0.005) and 80% (P<0.0005) for the 50 mg/Kg and 100 mg/Kg doses, respectively.
All experiments were carried out using female athymic nude CD-1 mice, 8-11-weeks old (Charles River, Calco, Italy). Mice were maintained in laminar flow rooms with constant temperature and humidity. Experimental protocols were approved by the Ethic Committee for Animal Experimentation of the Istituto Nazionale per lo Studio e la Cura dei Tumori (Milan, Italy), according to the United Kingdom Coordinating Committee on Cancer Research Guidelines (Workman P. et al., British Journal of Cancer, 77, 1, 1998).
The MTC cells TT (1.6×10^7 cells) were s.c. inoculated in mice as a cell suspension from in vitro cell culture. Each control or drug-treated group included 8-10 tumors. Tumor cells were injected on day 0, and tumor growth was followed by biweekly measurements of tumor diameters with a Vernier caliper. Tumor weight (TW) was calculated according to the formula: TW (mg)=tumor volume (mm^3)=d^2xD/2, where d and D are the shortest and the longest diameter, respectively. Drug treatment started when tumors were just measurable (mean TW about 50 mg), 25 days after the inoculum of tumor cells. Cpd1 was dissolved in 5% ethanol, 5% Cremophor EL, 90% saline (0.9% NaCl) and delivered per os twice in a day (2qd) by a daily schedule for 10 days. Control mice received the solvent solution.
Drug efficacy was assessed as percentage TW inhibition (TWI % in drug-treated versus control mice expressed as: TWI %=100−(mean TW treated/mean TW control×100). For statistical analysis, TW in control and treated mice were compared on the day of TWI % evaluation, by Student's t test (two-tailed). P values less than 0.05 were considered statistically significant.

Turning to `COc1cc2c(cc1OC)/C(=C\c1ccc(O)cc1)C(=O)N2` [Cpd 1, (E)-1,3-dihydro-5,6-dimethoxy-3-[(4-hydroxyphenyl)methylene]-2H-indol-2-one], the Transformed morphologic phenotype result in data set [1] is recorded as “Reversion of the transformed morphologic phenotype”. In addition, the FGF-R1 tyrosine phosphorylation entry in data set [2] (Swiss3T3 cells serum starved, 100 ng/ml FGF 5 min) was “dose-dependent inhibition”. The FGF-R1 expression entry in data set [2] (Swiss3T3 cells) is on record as “dose-dependent inhibition”. Moreover, the “TWI (tumor weight inhibition)” value is given as 60% in data set [3] (50 mg/Kg per os, 2qd, P<0.005) and 80% in data set [3] (100 mg/Kg per os, 2qd, P<0.0005). Also, the Tumor growth result in data set [3] (50 or 100 mg/Kg per os, 2qd, 10 days) is recorded as “significant dose-dependent inhibition”. The “Tumor weight inhibition (TWI) reached” value in data set [3] (oral, daily dose of 50-100 mg/Kg (twice a day)) stood at 80%. Further, in data set [3] (oral, daily dose of 50-100 mg/Kg (twice a day), nude mice), the Toxicity result is listed as “without inducing toxicity”.
